Experimental data reported in the NIST ThermoML archive (doi:10.1016/j.tca.2015.08.023).
± gives the expanded uncertainty stated by the source.

Key:
[1] = refractive index (Na D-line) (dimensionless); settings: 101.33 kPa, Liquid, Standard Abbe refractometry
[2] = 101.33 kPa, Liquid, Vibrating tube method

SMILES | refractive index ([1]; 298.15 K) | refractive index ([1]; 308.15 K) | refractive index ([1]; 318.15 K) | mass density ([2]; 298.15 K) [kg/m3] | mass density ([2]; 308.15 K) [kg/m3] | mass density ([2]; 318.15 K) [kg/m3]
CCCCCCCC [octane] | 1.3948 ± 0.0005 | 1.3904 ± 0.0005 | 1.3868 ± 0.0005 | 698.6 ± 2 | 690.5 ± 2 | 682.2 ± 2
CCCc1ccccc1 [propylbenzene] | 1.4892 ± 0.0006 | 1.4844 ± 0.0006 | 1.48 ± 0.0006 | 857.9 ± 2.1 | 849.4 ± 2.1 | 840.9 ± 2.1
CCc1ccccc1 [ethylbenzene] | 1.4928 ± 0.0005 | 1.4879 ± 0.0005 | 1.4832 ± 0.0005 | 862.7 ± 2 | 853.8 ± 2 | 844.8 ± 2
